Laboratory results reported in ChEMBL document CHEMBL4190197, “Nepetaefolins A-J, Cytotoxic Chinane and Abietane Diterpenoids from Caryopteris nepetaefolia” (J Nat Prod, 2017).

Key:
Type in all cases: functional
Conditions in all cases: Homo sapiens, 144 h
[1] = Antiproliferative activity against ovarian cancer patient-derived OVPF038 cells after 6 days by ATP-TCA method
[2] = Antiproliferative activity against non-small cell lung cancer patient-derived LUPF003 cells after 6 days by ATP-TCA method
[3] = Antiproliferative activity against ovarian cancer patient-derived OVPF008 cells after 6 days by ATP-TCA method
[4] = Antiproliferative activity against non-small cell lung cancer patient-derived LUPF045 cells after 6 days by ATP-TCA method

| SMILES | IC50 [1] [µM] | IC50 [2] [µM] | IC50 [3] [µM] | IC50 [4] [µM] |
| --- | --- | --- | --- | --- |
| CC(C)(O)c1cc2c(cc1O)[C@@]1(C)CCC3=C(COC3=O)[C@@H]1CC2 | > 50 | 44.7 | > 50 | – |
| C=C(C)c1cc2c(cc1O)[C@@]1(C)CCC3=C(COC3=O)[C@@H]1CC2 | > 50 | 43.8 | – | 49.6 |
| C=C(C)c1ccc2c(c1)CC[C@H]1C3=C(CC[C@]21C)C(=O)OC3 | 19.3 | 11.7 | 16.8 | 9 |
| CC(=O)O[C@H]1C(=O)[C@@]2(C)[C@H]([C@H](OC(=O)c3ccccc3)[C@]3(O)C[C@H](OC(=O)[C@H](O)[C@@H](NC(=O)c4ccccc4)c4ccccc4)C(C)=C1C3(C)C)[C@]1(OC(C)=O)CO[C@@H]1C[C@@H]2O [PACLITAXEL] | 1.4 | 11 | 1.1 | 11.2 |
| CC(=O)OC[C@@]1(C)[C@@H](O)CC[C@]2(C)c3ccc(C(C)C)cc3CC[C@@H]12 | 12.7 | 31.5 | 7.9 | 6.3 |
| CC(C)[C@@]12C=C3CC[C@H]4[C@@](C)(CO)[C@@H](O)CC[C@]4(C)[C@]3(CC1)OO2 | > 50 | – | > 50 | 49.7 |
| CC(C)[C@]12C=C3CC[C@H]4[C@@](C)(CO)[C@@H](O)CC[C@]4(C)[C@]3(CC1)OO2 | – | – | – | > 50 |
| CC(C)[C@]12C=C3CC[C@@H]4[C@](C)(CCC[C@]4(C)C(=O)O)[C@]3(CC1)OO2 | – | – | – | > 50 |
